Experimental data from ChEMBL document CHEMBL5725762, “Tetracyclic pyridone compounds as antivirals” (2018).

Assay: HBSAg ELISA assay: HepG2-Clone42 cells were seeded in into black clear-bottom 96-well plates at a concentration of 6.0×10^4 cells/well. 24 hours post-seeding, the cells were treated with 200 μl/well of media containing five-fold serial dilutions of compounds in DMSO. DMSO alone was used as the no drug control. The final DMSO concentration in all wells was 0.5%. The HBsAg ELISA kit (Alpha Diagnostic International, San Antonio, Tex., USE, Catalog #4110) was used to determine the level (semi-quantitative) of secreted HBV sAg.

`COCCCOc1cc2c(cc1OC)-c1c(F)c(=O)c(C(=O)O)cn1C1[C@@H]2OCC1(C)C` (stereo partly drawn) and `COCCCOc1cc2c(cc1OC)-c1cc(=O)c(C(=O)O)cn1C1[C@@H]2COC1(C)C` (stereo partly drawn) are within 1.5-fold of each other in EC50: 0.8 nM for the first, 1 nM for the second.

With `COCCCOc1cc2c(cc1Cl)-c1cc(=O)c(C(=O)O)cn1[C@H]1[C@@H]2CCC1(C)C` the EC50 was 0.1 nM.
